This test concerns the target AgrA (Staphylococcus aureus, UniProt P0A0I7). Nature of the test: cell-based. Details: species or system S. aureus USA300 strain UAMS-1625. The settings on record: for Ratio IC50 (in presence of HSA)/IC50 (in absence of HSA): 40 mg/mL HSA vs without HSA.
Where [1] appears, read: IC50 at 40 mg/mL HSA, LB medium supplemented with 40 mg/mL human serum albumin.
[2] abbreviates: IC50 without HSA, LB medium, without HSA.

Sequence of AgrA (P0A0I7 whole entry): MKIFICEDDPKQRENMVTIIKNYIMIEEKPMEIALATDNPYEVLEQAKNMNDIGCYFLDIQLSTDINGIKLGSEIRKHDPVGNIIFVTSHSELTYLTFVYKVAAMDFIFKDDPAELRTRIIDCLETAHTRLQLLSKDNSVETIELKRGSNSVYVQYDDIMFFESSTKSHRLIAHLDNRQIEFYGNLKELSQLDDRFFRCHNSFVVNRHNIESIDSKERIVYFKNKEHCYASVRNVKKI

Take `Cc1ccc(S(=O)(=O)c2nnn3c2[nH]c(=O)c2ccc(N4CC[C@@H](N)C4)cc23)c(C)c1` [Compound 35, 8-[(3R)-3-aminopyrrolidin-1-yl]-3-(2,4-dimethylbenzenesulfonyl)-4H,5H-[1,2,3]triazolo[1,5-a]quinazolin-5-one]: the “Ratio IC50 (in presence of HSA)/IC50 (in absence of HSA)” value (from here on “Ratio IC50 (in presence of HSA)/IC50”) is reported as “+++ (ratio ≤ 25)”. The IC50 under setting [1] fell in the range of 22.8 to 114 µM. Under setting [2], the IC50 is under 2.28 µM.

Consider `Cc1ccc(S(=O)(=O)c2nnn3c2[nH]c(=O)c2ccc(N4CCN5CCCC5C4)cc23)c(C)c1` (centres unmarked) [Compound 36, 3-(2,4-dimethylbenzenesulfonyl)-8-{octahydropyrrolo[1,2-a]pyrazin-2-yl}-4H,5H-[1,2,3]triazolo[1,5-a]quinazolin-5-one], for which the “Ratio IC50 (in presence of HSA)/IC50” value is “+++ (ratio ≤ 25)”. Moreover, the IC50 under setting [1] fell in the range of 20.9 to 104 µM. For the same compound, the IC50 under setting [2] was under 2.09 µM.

For `Cc1ccc(S(=O)(=O)c2nnn3c2[nH]c(=O)c2ccc(N4CCN5CCC[C@H]5C4)cc23)c(C)c1` [Compound 37, 8-[(8aS)-octahydropyrrolo[1,2-a]pyrazin-2-yl]-3-(2,4-dimethylbenzenesulfonyl)-4H,5H-[1,2,3]triazolo[1,5-a]quinazolin-5-one], the “Ratio IC50 (in presence of HSA)/IC50” value is recorded as “+++ (ratio ≤ 25)”. The compound further yielded an IC50 under setting [1] of 20.9 to 104 µM. This compound had an IC50 under setting [2] of 2.09 to 10.4 µM.

Turning to `Cc1ccc(S(=O)(=O)c2nnn3c2[nH]c(=O)c2ccc(N4CCN5CCC[C@@H]5C4)cc23)c(C)c1` [Compound 38, 8-[(8aR)-octahydropyrrolo[1,2-a]pyrazin-2-yl]-3-(2,4-dimethylbenzenesulfonyl)-4H,5H-[1,2,3]triazolo[1,5-a]quinazolin-5-one], the “Ratio IC50 (in presence of HSA)/IC50” value is listed as “+++ (ratio ≤ 25)”. The IC50 under setting [1] lay within 20.9 to 104 µM. Under setting [2], this compound gave an IC50 of 2.09 to 10.4 µM.

Regarding `Cc1ccc(S(=O)(=O)c2nnn3c2[nH]c(=O)c2ccc(N4CCC5C(CCN5C)C4)cc23)c(C)c1` (centres unmarked) [Compound 39, 3-(2,4-dimethylbenzenesulfonyl)-8-{1-methyl-octahydro-1H-pyrrolo[3,2-c]pyridin-5-yl}-4H,5H-[1,2,3]triazolo[1,5-a]quinazolin-5-one], the “Ratio IC50 (in presence of HSA)/IC50” value was “+++ (ratio ≤ 25)”. In addition, the IC50 under setting [1] fell in the range of 20.3 to 102 µM. The compound further had an IC50 under setting [2] of under 2.03 µM.

Turning to `Cc1ccc(S(=O)(=O)c2nnn3c2[nH]c(=O)c2ccc(N4C[C@H]5CNC[C@H]5C4)cc23)c(C)c1` [Compound 40, 8-[(3aR,6aS)-octahydropyrrolo[3,4-c]pyrrol-2-yl]-3-(2,4-dimethylbenzenesulfonyl)-4H,5H-[1,2,3]triazolo[1,5-a]quinazolin-5-one], the “Ratio IC50 (in presence of HSA)/IC50” value is reported as “+++ (ratio ≤ 25)”. The compound further registered an IC50 under setting [1] of 21.5 to 108 µM. Moreover, the IC50 under setting [2] lay within 2.15 to 10.8 µM.

Regarding `Cc1ccc(S(=O)(=O)c2nnn3c2[nH]c(=O)c2ccc(N4CCN(C(C)(C)C)CC4)cc23)c(C)c1` [Compound 41, 8-(4-tert-butylpiperazin-1-yl)-3-(2,4-dimethylbenzenesulfonyl)-4H,5H-[1,2,3]triazolo[1,5-a]quinazolin-5-one], the “Ratio IC50 (in presence of HSA)/IC50” value is reported as “+++ (ratio ≤ 25)”. Further, the IC50 under setting [1] was in the range of 20.2 to 101 µM. For the same compound, under setting [2], the concentration for half-maximal inhibition (IC50) was 2.02 to 10.1 µM.

In the case of `COCCN1CCN(c2ccc3c(=O)[nH]c4c(S(=O)(=O)c5ccc(C)cc5C)nnn4c3c2)CC1` [Compound 42, 3-(2,4-dimethylbenzenesulfonyl)-8-[4-(2-methoxyethyl)piperazin-1-yl]-4H,5H-[1,2,3]triazolo[1,5-a]quinazolin-5-one], the “Ratio IC50 (in presence of HSA)/IC50” value was “+++ (ratio ≤ 25)”. The compound further showed an IC50 under setting [1] of 20.1 to 101 µM. In addition, the IC50 under setting [2] lay within 2.01 to 10.1 µM.

With `Cc1ccc(S(=O)(=O)c2nnn3c2[nH]c(=O)c2ccc(N4CCN(CCO)CC4)cc23)c(C)c1` [Compound 43, 3-(2,4-dimethylbenzenesulfonyl)-8-[4-(2-hydroxyethyl)piperazin-1-yl]-4H,5H-[1,2,3]triazolo[1,5-a]quinazolin-5-one], the “Ratio IC50 (in presence of HSA)/IC50” value was “++ (ratio ≤ 125)”. Under setting [1], this compound came in with an IC50 of 20.7 to 104 µM. Also, the IC50 under setting [2] was under 2.07 µM.

For `Cc1ccc(S(=O)(=O)c2nnn3c2[nH]c(=O)c2ccc(N4CCN(C(C)CO)CC4)cc23)c(C)c1` (centres unmarked) [Compound 44, 3-(2,4-dimethylbenzenesulfonyl)-8-[4-(1-hydroxypropan-2-yl)piperazin-1-yl]-4H,5H-[1,2,3]triazolo[1,5-a]quinazolin-5-one], the “Ratio IC50 (in presence of HSA)/IC50” value is given as “++ (ratio ≤ 125)”. Under setting [1], this compound had an IC50 of 20.1 to 101 µM. For the same compound, under setting [2], the IC50 is under 2.01 µM.

With `Cc1ccc(S(=O)(=O)c2nnn3c2[nH]c(=O)c2ccc(N4CCN(CCOCCO)CC4)cc23)c(C)c1` [Compound 45, 3-(2,4-dimethylbenzenesulfonyl)-8-{4-[2-(2-hydroxyethoxy)ethyl]piperazin-1-yl}-4H,5H-[1,2,3]triazolo[1,5-a]quinazolin-5-one], the “Ratio IC50 (in presence of HSA)/IC50” value is “+++ (ratio ≤ 25)”. Under setting [1], this compound had an IC50 of 19 to 94.9 µM. The compound also showed an IC50 under setting [2] of under 1.9 µM.

`Cc1ccc(S(=O)(=O)c2nnn3c2[nH]c(=O)c2ccc(N4CCCN(CCO)CC4)cc23)c(C)c1` [Compound 46, 3-(2,4-dimethylbenzenesulfonyl)-8-[4-(2-hydroxyethyl)-1,4-diazepan-1-yl]-4H,5H-[1,2,3]triazolo[1,5-a]quinazolin-5-one]: the “Ratio IC50 (in presence of HSA)/IC50” value is on record as “+++ (ratio ≤ 25)”. The compound further registered an IC50 under setting [1] of 20.1 to 101 µM. The compound further yielded an IC50 under setting [2] of under 2.01 µM.

For `Cc1ccc(S(=O)(=O)c2nnn3c2[nH]c(=O)c2ccc(N4CCCNCC4)cc23)c(C)c1` [Compound 47, 8-(1,4-diazepan-1-yl)-3-(2,4-dimethylbenzenesulfonyl)-4H,5H-[1,2,3]triazolo[1,5-a]quinazolin-5-one], the “Ratio IC50 (in presence of HSA)/IC50” value is “+++ (ratio ≤ 25)”. Besides, under setting [1], the IC50 is under 22.1 µM. Under setting [2], the IC50 was under 2.21 µM.

As for `Cc1ccc(S(=O)(=O)c2nnn3c2[nH]c(=O)c2ccc(N4CCCOCC4)cc23)c(C)c1` [Compound 48, 3-(2,4-dimethylbenzenesulfonyl)-8-(1,4-oxazepan-4-yl)-4H,5H-[1,2,3]triazolo[1,5-a]quinazolin-5-one], the “Ratio IC50 (in presence of HSA)/IC50” value is reported as “++ (ratio ≤ 125)”. This compound displayed an IC50 under setting [1] of 22 to 110 µM. The IC50 under setting [2] was under 2.2 µM.

As to `Cc1ccc(S(=O)(=O)c2nnn3c2[nH]c(=O)c2ccc(N4CCCN(C)CC4)cc23)c(C)c1` [Compound 49, 3-(2,4-dimethylbenzenesulfonyl)-8-(4-methyl-1,4-diazepan-1-yl)-4H,5H-[1,2,3]triazolo[1,5-a]quinazolin-5-one], the “Ratio IC50 (in presence of HSA)/IC50” value is given as “+++ (ratio ≤ 25)”. Further, the IC50 under setting [1] lay within 21.4 to 107 µM. The compound further came in with a half-inhibitory concentration (IC50) under setting [2] of 2.14 to 10.7 µM.

Turning to `Cc1ccc(S(=O)(=O)c2nnn3c2[nH]c(=O)c2ccc(N4CC5CCC(C4)N5)cc23)c(C)c1` [Compound 50], the IC50 under setting [1] was under 21.5 µM and the IC50 under setting [2] fell in the range of 2.15 to 10.8 µM.

Turning to `Cc1ccc(S(=O)(=O)c2nnn3c2[nH]c(=O)c2ccc(N4CCN(CC(F)(F)F)CC4)cc23)c(C)c1` [Compound 51, 3-(2,4-dimethylbenzenesulfonyl)-8-[4-(2,2,2-trifluoroethyl)piperazin-1-yl]-4H,5H-[1,2,3]triazolo[1,5-a]quinazolin-5-one], the “Ratio IC50 (in presence of HSA)/IC50” value is “++ (ratio ≤ 125)”. Also, the IC50 under setting [1] fell in the range of 19.2 to 96.1 µM. The same compound came in with an IC50 under setting [2] of under 1.92 µM.

With `Cc1ccc(S(=O)(=O)c2nnn3c2[nH]c(=O)c2ccc(N4CCN(C(=O)C(C)C)CC4)cc23)c(C)c1` [Compound 52, 3-(2,4-dimethylbenzenesulfonyl)-8-[4-(2-methylpropanoyl)piperazin-1-yl]-4H,5H-[1,2,3]triazolo[1,5-a]quinazolin-5-one], the “Ratio IC50 (in presence of HSA)/IC50” value is given as “+++ (ratio ≤ 25)”. The IC50 under setting [1] is 19.7 to 98.3 µM. The compound also registered an IC50 under setting [2] of under 1.97 µM.

Consider `Cc1ccc(S(=O)(=O)c2nnn3c2[nH]c(=O)c2ccc(N4CCN(C)C(=O)C4)cc23)c(C)c1` [Compound 53, 4-[3-(2,4-dimethylbenzenesulfonyl)-5-oxo-4H,5H-[1,2,3]triazolo[1,5-a]quinazolin-8-yl]-1-methylpiperazin-2-one], for which the “Ratio IC50 (in presence of HSA)/IC50” value is reported as “++ (ratio ≤ 125)”. Moreover, the IC50 under setting [1] fell in the range of 21.4 to 107 µM. This compound showed an IC50 under setting [2] of under 2.14 µM.

As to `Cc1ccc(S(=O)(=O)c2nnn3c2[nH]c(=O)c2ccc(N4CCn5ccnc5C4)cc23)c(C)c1` [Compound 54, 3-(2,4-dimethylbenzenesulfonyl)-8-{5H,6H,7H,8H-imidazo[1,2-a]pyrazin-7-yl}-4H,5H-[1,2,3]triazolo[1,5-a]quinazolin-5-one], the “Ratio IC50 (in presence of HSA)/IC50” value is recorded as “++ (ratio ≤ 125)”. The compound also displayed an IC50 under setting [1] of 21 to 105 µM. Under setting [2], the IC50 is 2.1 to 10.5 µM.

For `Cc1ccc(S(=O)(=O)c2nnn3c2[nH]c(=O)c2ccc(N4CCN(C5COC5)CC4)cc23)c(C)c1` [Compound 55, 3-(2,4-dimethylbenzenesulfonyl)-8-[4-(oxetan-3-yl)piperazin-1-yl]-4H,5H-[1,2,3]triazolo[1,5-a]quinazolin-5-one], the “Ratio IC50 (in presence of HSA)/IC50” value was “++ (ratio ≤ 125)”. The compound also came in with an IC50 under setting [1] of under 20.2 µM. Under setting [2], this compound yielded an IC50 of under 2.02 µM.

As to `Cc1ccc(S(=O)(=O)c2n[nH]n3c2nc(=O)c2ccc(N4CCN(C5CCOCC5)CC4)cc23)c(C)c1` [Compound 56, 3-(2,4-dimethylbenzenesulfonyl)-8-[4-(oxan-4-yl)piperazin-1-yl]-1H,5H-[1,2,3]triazolo[1,5-a]quinazolin-5-one], the “Ratio IC50 (in presence of HSA)/IC50” value is on record as “+++ (ratio ≤ 25)”. In addition, the half-inhibitory concentration (IC50) under setting [1] was in the range of 19.1 to 95.7 µM. Under setting [2], this compound gave an IC50 of under 1.91 µM.

Regarding `Cc1ccc(S(=O)(=O)c2nnn3c2[nH]c(=O)c2ccc(N4CCN(CCN)CC4)cc23)c(C)c1` [Compound 57, 8-[4-(2-aminoethyl)piperazin-1-yl]-3-(2,4-dimethylbenzenesulfonyl)-4H,5H-[1,2,3]triazolo[1,5-a]quinazolin-5-one], the “Ratio IC50 (in presence of HSA)/IC50” value is on record as “+++ (ratio ≤ 25)”. In addition, under setting [1], the IC50 lay within 20.8 to 104 µM. This compound also gave an IC50 under setting [2] of 2.08 to 10.4 µM.

These data come from patent US20250213575A1, “8-HETEROCYCLIC-3-(PHENYLSULFONYL)-[1,2,3]TRIAZOLO[1,5A]QUINAZOLIN-5(4H)-ONE DERIVATIVES AS ANTI-BACTERIALS” (priority 2022, published 2025).
